Target: T1, SGF29TTD (R115–K293) (Homo sapiens, UniProt Q96ES7)
T1 construct: SGF29TTD (R115–K293); made in house; host or cells: E. coli
T1 sequence (Q96ES7 115-293): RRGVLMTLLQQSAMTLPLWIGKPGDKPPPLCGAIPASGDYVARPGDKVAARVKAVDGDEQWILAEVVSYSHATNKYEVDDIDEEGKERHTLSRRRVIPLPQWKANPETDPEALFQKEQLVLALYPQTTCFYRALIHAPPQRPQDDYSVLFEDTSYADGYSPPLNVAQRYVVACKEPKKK
Test: ITC, association of histone H3 peptides with SGF29TTD
Assay type: binding
Source text: We investigated the thermodynamics of association of the H3KP4me3 peptide with five representative human reader domains containing either a PHD zinc finger or TTD, i.e. KDM5APHD3 (JARID1A-PHD3, residues M1489–V1641)[10], TAF3PHD (R857–K924)[22], BPTFPHD (L2583–N2751)[23], SGF29TTD (R115–K293)[24] and KDM4ATTD (JMJD2A, Q897-P1011)[25], selected on the basis of their preference for binding Ν^ε-trimethyllysine over other (non)methylation marks (Kme0 < Kme1 < Kme2 < Kme3), and their domain and aromatic cage diversity. The recombinant readers were produced in E. coli following reported procedures. Isothermal titration calorimetric (ITC) analyses were used to determine the dissociation constant (Kd), the Gibbs free energy of binding (ΔG°), the enthalpy of binding (ΔH°), and the entropy of binding (ΔS°). […] (Table 1, Fig. 2, Supplementary Fig. 1).
The following purified reader domains: TAF3PHD (R857-K924), KDM5APHD3 (JARID1A, M1489-V1641), BPTFPHD (L2583-N2751), KDM4ATTD (JMJD2A, Q897-P1011) and SGF29TTD (R115-K293) were prepared as reported[10],[22]–[26]. The histone lysine demethylase were produced and purified to high purity via reported procedures KDM3A (JMJD1A, T515-S1317)[41], KDM4AJmjC[39] (JMJD2A, M1-L359), KDM4EJmjC (JMJD2E, M1–Q337)[34] and KDM7B[40] (PHF8, M37-N483 [NP_001171]). KDM5DJmjC was produced using an N-terminal hexa-His tagged KDM4D (KDM4DM1-L358) DNA construct, transformed into BL21(DE3) competent cells for recombinant protein production. Colonies were used to inoculate of LB media (50 mL) containing kanamycin (50 µg·mL^−1) and chloramphenicol (34 µg·mL^−1), which was placed in a 37 °C shaker overnight. The starter culture (10 mL) was used to inoculate TB media (6 × 1 L) containing kanamycin (50 µg·mL^−1) in 2 L baffled shaker flasks. After reaching an of OD600 of ~0.8, the temperature was reduced to 18 °C; at OD600 ~0.9 the cells were induced by the IPTG (0.5 mM) addition. After shaking overnight, the culture was centrifuged (5000 rpm, 10 mins), the media was decanted, and the cell pellet was suspended in Lysis Buffer [HEPES (50 mM), NaCl (500 mM), imidazole (20 mM), glycerol (5%) and TCEP (0.5 mM) in water (pH 7.4)]. The suspension was lysed by passaging through a high-pressure cell breaker (Avestin – EmulsiFlex-C5) for three rounds. The lysate was cleared by centrifugation (60 minutes, 36,000 × g, 4 °C), then loaded onto a Ni NTA gravity column. After extensive rinsing of the Ni-NTA gravity column with lysis buffer, the His-tagged protein was eluted in lysis buffer containing 300 mM imidazole. The eluted protein was concentrated and subjected to gel filtration chromatography using an AKTA Xpress system, an S200 16/600 gel filtration column, and GF buffer [HEPES (50 mM), NaCl (150 mM), glycerol (5%) and TCEP (0.5 mM) in water (pH 7.4)]. The protein identity was verified by LC-MS (ESI-TOF) observing a mass of 43759.7 Da, in accord with the predicted mass of 43751.6 Da.
ITC studies followed a reported procedure. The buffer used corresponded to that used in the final protein purification step. […] Histone peptide titrations were performed with the same reader batches. Solutions of the reader in buffer (25–40 µM) and of the histone H3 peptide (350–600 µM) in buffer were prepared. […] Heats of dilution for histone peptides determined in control experiments were subtracted from the titration binding data. […]

[1] = 25 °C, H3 1-10 peptide, pH 7.5, from 3 to 5 experiments, ± SD

C[C@H](N)C(=O)N[C@@H](CCCNC(=N)N)C(=O)N[C@H](C(=O)N[C@@H](CCCC[P+](C)(C)C)C(=O)N[C@@H](CCC(N)=O)C(=O)N[C@H](C(=O)N[C@@H](C)C(=O)N[C@@H](CCCNC(=N)N)C(=O)N[C@@H](CCCCN)C(=O)N[C@@H](CO)C(N)=O)[C@@H](C)O)[C@@H](C)O [H3KP4me3]
-TΔS° [1]: 1.0 ± 0.1 kcal/mol
ΔG° [1]: -7.6 ± 0.1 kcal/mol
ΔH° [1]: -8.6 ± 0.1 kcal/mol
binding affinity relative to H3K4me3 (SGF29TTD): comparable binding affinity for H3K4me3 and H3KP4me3

Reference: paper PMC7613515, “Reading and erasing of the phosphonium analogue of trimethyllysine by epigenetic proteins” (Communications Chemistry, 2022)
